Values quoted from earlier work as cited in patent US8097259B2, “Method for prevention and treatment of Alzheimer's disease” (SunWay Biotech Co., Ltd., priority 2007, dated 2012).

Test system: Alzheimer's disease
Conditions: Wolozin et al. 2000

For `CC[C@H](C)C(=O)O[C@H]1C[C@@H](C)C=C2C=C[C@H](C)[C@H](CC[C@@H]3C[C@@H](O)CC(=O)O3)[C@H]21` [lovastatin], the “results for AD treatment among statins” value is given as “best results”.
